{
  "source": "patent US20230172958A1",
  "about": "“USE OF COMPOUNDS FOR TREATING VIRAL INFECTIONS” (priority 2020, published 2023)",
  "key": {"SARS-CoV-2 [1]": {"tested_on": "SARS-CoV-2", "assay_type": "in vivo, golden Syrian hamster"}, "V-ATPase": {"tested_on": "V-ATPase", "experiment": "V-ATPase ELISA (Human V-Type Proton ATPase ELISA kit) on treated MDAMB231 cells", "assay_type": "cell-based", "conditions": "100 nM (0.1 μM)/10,000 cells, 48 hours", "description": "An ELISA test was performed using Human V-Type Proton ATPase ELISA kit (My BioSource Catlog no: MBS911862) to determine the V-ATPase inhibitory effect of the compounds of the present invention.\nProcedure: 1.0 million cells of MDAMB231 (cell line rich in V-ATPase) were plated on 60 mm plates for 24 hours at 37° C. and 5% CO2. The cells were treated with the test compounds (Formula A to U) at a concentration of 100 nM (0.1 μM)/10,000 cells and incubated for 48 hours. After incubation the supernatant was discarded, the cells were washed with D.P.B.S. (Dulbecco's phosphate-buffered saline), scraped and stored at −80° C. for 48 hours. The cells were thawed, vortexed, homogenized for 7 minutes, followed by centrifugation for 3 minutes at 3000 R.P.M. The supernatant was taken for V-ATPase Assay.\nStandards and samples were pipetted into the wells. Antibody specific for V-ATPase was pre-coated onto a microplate. Any V-ATPase present in the standard /sample would get bound by the immobilized antibody. After the incubation period any unbound substances were removed by washing and a biotin-conjugated antibody specific for V-ATPase was added to the wells and plates were re-incubated at 37° C. and 5% CO2. After washing, avidin conjugated Horseradish Peroxidase (HRP) was added to the wells. Following a wash to remove any unbound avidin-enzyme reagent, a substrate solution was added to the wells and colour developed was in proportion to the amount of V-ATPase bound in the initial step. The colour development was stopped, and the optical density was measured at 450 nm spectrophotometrically. The concentration of V-ATPase was then calculated by substituting the optical density in the regression equation obtained from the standards. Percent (%) reduction in V-ATPase was calculated by subtracting the amount of V-ATPase obtained from the untreated/conc. of V-ATPase in untreated X100."}, "Bacterial mutation study": {"experiment": "Bacterial mutation study", "description": "(§1) Various pre-clinical GLP (Good Laboratory Practice) and non-GLP studies were performed with the compound of Formula E. These included 7-day and 28- days studies on rats and dogs, acute toxicity in rats, mice and dogs. The effect of the compound of Formula E on respiratory function, nervous system and cardiovascular system, bacterial mutation, metabolism, CaCo2 permeability, protein binding and cytochrome effect was also studied."}, "SARS-CoV-2 [2]": {"tested_on": "SARS-CoV-2", "experiment": "Neutral Red reduction of virus-induced cytopathic effect (primary CPE assay) in Vero 76 cells", "assay_type": "cell-based", "conditions": "Severe acute respiratory syndrome coronavirus 2, virus-inhibitory"}, "[3]": {"tested_on": "Human Peripheral Blood Lymphocytes", "experiment": "MTT toxicity assay on normal cells", "assay_type": "cell-based", "conditions": "48 hours", "description": "Toxicity studies of compounds of the present invention on normal cells The toxicity study was performed on Human Peripheral Blood Lymphocytes obtained differential centrifugation of defibrinated blood. MTT assay for compound of the present invention was performed to determine its toxicity. MTT assay is a simple and sensitive assay where, metabolic reducing activity of the cells is measured. It was carried out in the following manner.\nA required volume of cell suspension was prepared as per the cell plating efficiency. 200 μl of prepared cell suspension was added in labelled 96 well plates and the plates were placed in an incubator for 18-24 hours at 37° C. and 5% CO2. Then, 2 μl of respective compound dilution was added and the plates were placed in the incubator for 48 hours at 37° C. and 5% CO2. The suspension was aspirated from the plates and 100 μl of working MTT solution (0.5 mg/ml MTT prepared from 5 mg/ml MTT stock in 1× complete media) was added. The plates were incubated in the incubator for 4 hours at 37° C. and 5% CO2. The plates were spinned down, supernatant removed, 200 μl DMSO was added, mixed gently and placed in the incubator for 10 minutes at 37° C. and 5% CO2. The absorbance at 570 nm was read and percentage viability and IC50 value of the compounds was calculated using regression analysis."}, "SARS-CoV-2 [4]": {"tested_on": "SARS-CoV-2", "experiment": "Anti SARS-CoV-2 IC50 estimation by qRT-PCR in VeroE6 cells", "assay_type": "cell-based", "conditions": "Severe acute respiratory syndrome coronavirus 2, Vero C1008"}, "[5]": {"experiment": "Pre-clinical GLP and non-GLP toxicity and safety studies", "assay_type": "in vivo", "description": "as §1"}, "[6]": {"experiment": "Cytotoxicity by Hoechst 33342 / Sytox orange staining", "assay_type": "cell-based", "conditions": "African green monkey, Vero E6 cells", "description": "The assay was done in a 96 well plate format in 3 wells for each sample. 1×10e4 Vero E6 cells were plated per well and incubated at 37° C. overnight for monolayer formation. Next day, cells were incubated with the test substance (TS) at the indicated concentration with final DMSO concentration being 0.5%. The Control cells were incubated with 0.5% DMSO only. 24 and 48 hours later, cells were stained with Hoechst 33342 and Sytox orange dye. Images were taken at 10×, 16 images per well, which covers 90% of the well area using ImageXpress Microconfocal (Molecular Devices). Hoechst 33342 nucleic acid stain is a popular cell-permanent nuclear counterstain that emits blue fluorescence when bound to dsDNA. It stains all the live and dead cells. Sytox orange dye stains the nucleic acid in the cells with compromised membranes. This stain is an indicator of cell death. First, the software will count total number of cells in the Hoechst image. In the Sytox image, it will count, among Hoechst positive cells, how many cells are positive for Sytox."}},
  "note": "Entries after “also recorded” stand apart in the source; their conditions may differ. Read-outs that look alike come from different tables or passages of the source.",
  "data": [
    {"smiles": "COC1COC(Oc2ccc(-c3ccc4c(c3)OCO4)c3ccccc23)C(O)C1OC", "note": "(stereo not drawn) [Compound of Formula E, 2-(1-(benzo[d][1,3]dioxol-5-yl)naphthalen-4-yloxy)-tetrahydro-4,5-dimethoxy-2H-pyran-3-ol]", "values": [
      {"measurement": "IL4 mRNA expression in splenocytes", "setting": "SARS-CoV-2 [1]; across all the groups", "result": "dramatic inhibition"},
      {"measurement": "body mass loss post infection", "setting": "SARS-CoV-2 [1]; hamster, in vivo", "result": "did not lose weight post infection; also recorded: second best recovery; also recorded: marginal protection"},
      {"measurement": "gross lung pneumonitis and inflammation, day 4 post challenge", "setting": "SARS-CoV-2 [1]; hamster, in vivo", "result": "significantly lesser regions of pneumonitis and inflammation"},
      {"measurement": "histological parameters and overall disease score (H&E)", "setting": "SARS-CoV-2 [1]; hamster, in vivo", "result": "best protection"},
      {"measurement": "histological protection (H&E)", "setting": "SARS-CoV-2 [1]; hamster, in vivo", "result": "little, or no protection"},
      {"measurement": "pneumonitis, alveolar epithelial injury and lung inflammation score (H&E)", "setting": "SARS-CoV-2 [1]; hamster, in vivo", "result": "good reduction"},
      {"measurement": "reduction in relative lung viral load (N2 gene)", "setting": "SARS-CoV-2 [1]; hamster, in vivo", "result": 5, "unit": "fold"},
      {"measurement": "splenomegaly", "setting": "SARS-CoV-2 [1]; hamster, in vivo", "result": "significant mitigation"},
      {"measurement": "spleen size", "setting": "SARS-CoV-2 [1]; other drug groups (δI/200, δII/800, δIV/400)", "result": "little or no reduction"},
      {"measurement": "overall protective efficacy against SARS-CoV-2 infection", "setting": "SARS-CoV-2 [1]; pre-treatment with 400 mpk, compared to Remdesivir", "result": "decreased lung viral load and pneumonitis compared to Remdesivir"},
      {"measurement": "IL17A mRNA expression in splenocytes", "setting": "SARS-CoV-2 [1]; δI/200", "result": "inhibition"},
      {"measurement": "INFγ mRNA expression in splenocytes", "setting": "SARS-CoV-2 [1]; δI/200", "result": "highest induction"},
      {"measurement": "IL17A mRNA expression in splenocytes", "setting": "SARS-CoV-2 [1]; δIII/p400", "result": "inhibition"},
      {"measurement": "reduction of V-ATPase (%)", "setting": "V-ATPase", "result": 15.6, "unit": "%"},
      {"measurement": "mutagenicity", "setting": "Bacterial mutation study", "result": "non-mutagenic"},
      {"measurement": "EC50", "setting": "SARS-CoV-2 [2]", "result": 0.35, "unit": "µg/mL"},
      {"measurement": "IC50 (μM)", "setting": "[3]", "result": "No activity (Nontoxic)"},
      {"measurement": "IC50", "setting": "SARS-CoV-2 [4]; VeroE6, MOI 0.01, 48 hours, qRT-PCR E gene, read-out: IC50 value (μM) E gene", "result": 0.571, "unit": "µM"},
      {"measurement": "IC50", "setting": "SARS-CoV-2 [4]; VeroE6, MOI 0.01, 48 hours, qRT-PCR N gene, read-out: IC50 value (μM) N gene", "result": 0.586, "unit": "µM"},
      {"measurement": "IC50", "setting": "SARS-CoV-2 [4]; conclusion statement, read-out: anti-SARS-CoV-2 activity IC50", "result": "< 10", "unit": "µM"},
      {"measurement": "toxic or adverse effect at higher dose", "setting": "[5]; 2000 mg/kg in rats, mice and dogs", "result": "did not show any toxic or adverse effect"},
      {"measurement": "toxicity in pre-clinical studies", "setting": "[5]; 7-day and 28-days studies on rats and dogs, acute toxicity in rats, mice and dogs", "result": "non-toxic"},
      {"measurement": "clastogenicity", "setting": "[5]; in vivo", "result": "non-clastogenic"},
      {"measurement": "effect on the respiratory, nervous and cardiovascular system", "setting": "[5]; in vivo", "result": "no effect"},
      {"measurement": "logP", "setting": "physchem", "result": "~4"},
      {"measurement": "viability at 24 h, 10 µM", "setting": "[6]; 24 hours, read-out: % Cell viability 24 hours", "result": 99.6, "unit": "%"},
      {"measurement": "viability at 48 h, 10 µM", "setting": "[6]; 48 hours, read-out: % Cell viability 48 hours", "result": 77.8, "unit": "%"}
    ]}
  ]
}
